Measured values taken from ChEMBL document CHEMBL1806432, “Cytotoxic diterpenoid quinonemethides from the roots of Pygmacopremna herbacea” (Bioorg Med Chem Lett, 2011).
≈ marks a conversion by molar mass, not a printed value.

Tests used:
Format in all cases: functional, cell-based
HeLa = assay: Cytotoxicity against human HeLa cells after 48 hrs by MTT assay
PC-3 = assay: Cytotoxicity against human PC3 cells after 48 hrs by MTT assay; details: PC-3, 48 h
A549 = assay: Cytotoxicity against human A549 cells after 48 hrs by MTT assay; details: A549, 48 h
MCF7 = assay: Cytotoxicity against human MCF7 cells after 48 hrs by MTT assay; details: MCF7, 48 h
HepG2 = assay: Cytotoxicity against human HepG2 cells after 48 hrs by MTT assay; details: HepG2, 48 h

Compound	IC50 (HeLa)	IC50 (PC-3)	IC50 (A549)	IC50 (MCF7)	IC50 (HepG2)
CC(C)C1=CC2=CC=C3C(C)(C)CC(=O)C[C@@]3(C)C2=C(O)C1=O	15.6 µg/mL (≈ 49.9 µM)	1.7 µg/mL (≈ 5.44 µM)	17.6 µg/mL (≈ 56.3 µM)	27.6 µg/mL (≈ 88.3 µM)	38.2 µg/mL (≈ 122 µM)
CC(C)C1=CC2=CC=C3C(C)(C)CC(=O)O[C@@]3(C)CC2=C(O)C1=O [BHARANGIN]	14.1 µg/mL (≈ 42.9 µM)	2.95 µg/mL (≈ 8.98 µM)	2.03 µg/mL (≈ 6.18 µM)	0.006 µg/mL (≈ 0.0183 µM)	14.3 µg/mL (≈ 43.5 µM)
COc1cccc2c1C(=O)c1c(O)c3c(c(O)c1C2=O)C[C@@](O)(C(=O)CO)C[C@@H]3O[C@H]1C[C@H](N)[C@H](O)[C@H](C)O1 [DOXORUBICIN]	0.24 µg/mL (≈ 0.442 µM)	2.3 µg/mL (≈ 4.23 µM)	0.51 µg/mL (≈ 0.938 µM)	–	1.6 µg/mL (≈ 2.94 µM)
CC(C)C1=CC2=CC=C3C(C)(C)[C@@H](O)C(=O)C[C@]3(C)C2=C(O)C1=O [ISOBHARANGIN]	103 µg/mL (≈ 315 µM)	62.2 µg/mL (≈ 189 µM)	24.1 µg/mL (≈ 73.4 µM)	28.2 µg/mL (≈ 85.9 µM)	6.29 µg/mL (≈ 19.2 µM)
CC(C)C1=CC2=CC=C3C(C)(C)COC(=O)[C@@]3(C)CC2=C(O)C1=O [NEOBHARANGIN]	104 µg/mL (≈ 318 µM)	48.6 µg/mL (≈ 148 µM)	2.61 µg/mL (≈ 7.95 µM)	0.39 µg/mL (≈ 1.19 µM)	13 µg/mL (≈ 39.6 µM)
